Experimental data reported in ChEMBL document CHEMBL1138690, “Carbonic anhydrase inhibitors. Inhibition of the newly isolated murine isozyme XIII with anions” (Bioorg Med Chem Lett, 2004).

Assays:
Carbonic anhydrase 13 = Carbonic anhydrase 13 (Mus musculus, UniProt Q9D6N1)
Description: Inhibitory activity against mouse carbonic anhydrase XIII expressed in Escherichia coli TOP 10

Carbonic anhydrase 1 = Carbonic anhydrase 1 (Homo sapiens, UniProt P00915)
Description: Inhibitory activity against human carbonic anhydrase I expressed in Escherichia coli

Carbonic anhydrase V = Carbonic anhydrase V (Homo sapiens, UniProt Q9Y2D0+P35218)
Description: Inhibitory activity against human carbonic anhydrase V expressed in Escherichia coli

Chain of Carbonic anhydrase 13 (Q9D6N1 whole entry): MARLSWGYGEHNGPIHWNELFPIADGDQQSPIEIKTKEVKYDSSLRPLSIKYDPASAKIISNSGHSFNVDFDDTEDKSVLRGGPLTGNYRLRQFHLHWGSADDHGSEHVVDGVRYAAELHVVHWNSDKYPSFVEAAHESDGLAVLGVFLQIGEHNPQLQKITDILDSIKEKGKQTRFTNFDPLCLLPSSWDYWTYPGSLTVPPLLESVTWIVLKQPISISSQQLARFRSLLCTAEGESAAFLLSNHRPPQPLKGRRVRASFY
Chain of Carbonic anhydrase 1 (P00915 whole entry): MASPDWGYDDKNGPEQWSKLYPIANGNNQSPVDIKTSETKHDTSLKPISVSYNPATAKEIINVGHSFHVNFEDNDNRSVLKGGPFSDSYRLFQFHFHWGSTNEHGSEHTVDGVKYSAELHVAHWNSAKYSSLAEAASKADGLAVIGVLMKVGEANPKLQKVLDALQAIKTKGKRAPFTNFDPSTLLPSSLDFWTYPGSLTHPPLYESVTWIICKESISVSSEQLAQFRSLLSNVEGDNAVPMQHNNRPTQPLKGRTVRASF

SMILES	Ki (Carbonic anhydrase 13)	Ki (Carbonic anhydrase 1)	Ki (Carbonic anhydrase V)
O=S(O)O [SULFUROUS ACID]	75.5 mM	18 mM	–
N#CO [CYANATE]	0.00025 mM	–	–
O=S(=O)(O)O [SULFURIC ACID]	267 mM	–	680 mM
NS(N)(=O)=O [SULFAMIDE]	0.14 mM	–	–
O=NO [NITROUS ACID]	12.6 mM	–	–
OB(O)c1ccccc1 [PHENYLBORONIC ACID]	2.85 mM	–	4.51 mM
NS(=O)(=O)O [SULFAMATE]	21.5 mM	–	0.12 mM
O=[N+]([O-])O [NITRIC ACID]	36 mM	–	16 mM
I [IODIDE]	5.4 mM	–	25 mM
Br [BROMIDE]	45 mM	–	–
N#CS [THIOCYANIC ACID]	0.74 mM	–	–
S [HYDROGEN SULFIDE]	5.2 mM	–	0.02 mM
F [FLUORIDE ION]	3 mM	–	–
Cl [HYDROCHLORIC ACID]	138 mM	–	156 mM
